Measurements as given in ChEMBL document CHEMBL5236599, “Design, synthesis and biological evaluation of cajanonic acid A analogues as potent PPAR γ antagonists” (Bioorg Med Chem Lett, 2023).

Key:
[1] = Induction of insulin-sensitizing activity in insulin-resistant human HepG2 cells assessed as increase in glucose consumption at 0.1 uM relative to control; type: functional
[2] = Induction of insulin-sensitizing activity in insulin-resistant human HepG2 cells assessed as glucose consumption at 0.1 uM (reference value: 5.83 +/-0.101 mM); type: functional
[3] = target: T1, Peroxisome proliferator-activated receptor gamma (Homo sapiens) (UniProt P37231); assay: Antagonist activity at PPAR-gamma (unknown origin) transfected in human HEK293 cells assessed as decrease in rosiglitazone-induced receptor transactivation at 1 uM by dual-luciferase reporter gene assay relative to control; type: cell-based
T1 sequence (whole entry): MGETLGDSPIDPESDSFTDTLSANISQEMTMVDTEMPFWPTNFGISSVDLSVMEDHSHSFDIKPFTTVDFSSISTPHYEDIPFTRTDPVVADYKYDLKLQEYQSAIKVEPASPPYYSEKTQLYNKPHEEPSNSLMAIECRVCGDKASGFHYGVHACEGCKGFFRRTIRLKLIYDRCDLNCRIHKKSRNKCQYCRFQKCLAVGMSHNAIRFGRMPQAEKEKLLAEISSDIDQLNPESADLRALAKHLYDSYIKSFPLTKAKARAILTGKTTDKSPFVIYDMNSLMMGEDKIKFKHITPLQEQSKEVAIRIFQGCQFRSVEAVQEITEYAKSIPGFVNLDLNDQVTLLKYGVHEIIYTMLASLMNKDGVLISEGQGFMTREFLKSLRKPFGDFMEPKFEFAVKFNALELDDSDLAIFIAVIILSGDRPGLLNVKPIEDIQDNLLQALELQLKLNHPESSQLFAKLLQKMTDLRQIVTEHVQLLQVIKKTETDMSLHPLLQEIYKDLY

[4] = target: T1, Peroxisome proliferator-activated receptor gamma (Homo sapiens); assay: Antagonist activity at PPAR-gamma (unknown origin) transfected in human HEK293 cells assessed as decrease in rosiglitazone-induced receptor transactivation at 10 uM by dual-luciferase reporter gene assay relative to control; type: cell-based
[5] = Induction of insulin-sensitizing activity in insulin-resistant mouse 3T3-L1 cells assessed as increase in glucose consumption at 0.1 uM relative to control; type: functional
[6] = Induction of insulin-sensitizing activity in insulin-resistant mouse 3T3-L1 cells assessed as glucose consumption at 0.1 uM (reference value: 3.354 +/- 0.342 mM); type: functional
[7] = Cytotoxicity against human HepG2 cells assessed as cell viability at 0.1 uM; type: toxicity, cell-based; details: read-out: Activity

Row | Structure (SMILES) | Activity [1] | Activity [2] | inhibition [3] | inhibition ([4]; filed as antagonist) | Activity [5] | Activity [6] | inhibition [4] | viability at 0.1 µM [7]
1 | COc1cc(CC(=O)c2cccc(-c3ccsc3)c2)c(C(=O)O)c(O)c1CC=C(C)C | 39.36% | 8.126 mM | 7.7% | 47.7% | 117.26% | 8.145 mM |  | 
2 | COc1cc(O)c(C(=O)O)c(CC(=O)c2cccc(-c3ccc(F)cc3)c2)c1CC=C(C)C | 29.73% | 7.564 mM | 16% | 66% | 77.02% | 6.637 mM |  | 
3 | COc1ccc(-c2cccc(C(=O)Cc3cc(OC)c(CC=C(C)C)c(O)c3C(=O)O)c2)c(F)c1 | 37.05% | 7.992 mM |  |  | 75.81% | 6.591 mM | 16.4% | 
4 | O=C(Nc1ccccc1)c1cc([N+](=O)[O-])ccc1Cl |  |  | 10.9% | 99.1% |  |  |  | 
5 | COc1cc(O)c(C(=O)O)c(CC(=O)c2cccc(-c3cccc(C(F)(F)F)c3)c2)c1CC=C(C)C | 42.45% | 8.306 mM | -2.4% |  | 71.43% | 6.427 mM | 39.6% | 
6 | COc1cc(O)c(C(=O)O)c(CC(=O)c2ccccc2)c1CC=C(C)C | 20.66% | 6.729 mM | 12.9% |  |  |  | 39% | 
7 | COc1ccc(-c2cccc(C(=O)Cc3c(CC=C(C)C)c(OC)cc(O)c3C(=O)O)c2)c(F)c1 | 18.83% | 6.928 mM | -0.4% | 84.7% | 95.64% | 7.335 mM |  | 
8 | COc1cc(CC(=O)c2cccc(-c3cncnc3)c2)c(C(=O)O)c(O)c1CC=C(C)C | 10.28% | 6.43 mM | 4.6% |  | 9.11% | 4.09 mM | 10.3% | < 80%
9 | COc1cc(CC(=O)c2cccc(-c3cccnc3)c2)c(C(=O)O)c(O)c1CC=C(C)C | 18.84% | 6.93 mM |  |  | 21.46% | 4.554 mM | 31.7% | < 80%
10 | COc1cc(CC(=O)c2cccc(-c3ccc(C)cc3)c2)c(C(=O)O)c(O)c1CC=C(C)C | 35.25% | 7.886 mM |  |  | 105.7% | 7.712 mM |  | 
11 | COc1cc(O)c(C(=O)O)c(CC(=O)c2cccc(-c3cncnc3)c2)c1CC=C(C)C | 5.76% | 6.171 mM | 11.5% | 55% | -11.08% | 3.405 mM |  | < 80%
12 | CCc1ccc(-c2cccc(C(=O)Cc3c(CC=C(C)C)c(OC)cc(O)c3C(=O)O)c2)cc1 | 40.66% | 8.202 mM | -8.3% | 60.2% | 77.5% | 6.655 mM |  | 
13 | COc1cc(O)c(C(=O)O)c(CC(=O)c2cccc(-c3ccnc(Cl)c3)c2)c1CC=C(C)C | 8.36% | 6.318 mM | 19.9% | 92.3% | 48.82% | 5.579 mM |  | < 80%
14 | COc1cc(CC(=O)c2cccc(-c3cccc(C(F)(F)F)c3)c2)c(C(=O)O)c(O)c1CC=C(C)C | 48.32% | 8.649 mM | -6.1% | 50.9% | 37.4% | 5.151 mM |  | 
